This note sets out measurements from patent US8530490B2, “Uracil compound or salt thereof having human deoxyuridine triphosphatase inhibitory activity” (Taiho Pharmaceutical Co., Ltd., priority 2008, dated 2013).

This test deals with human dUTPase (Homo sapiens (Human), UniProt P33316). The test is described as follows: Human dUTPase inhibitory effect: production of [5-3H]dUMP from [5-3H]dUTP, measured by HPLC with flow scintillation. To be noted: [5-3H]dUMP production from [5-3H]dUTP, 37° C., 15 minutes. The test is classed as biochemical. In a few lines:
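E. coli-expressed purified human dUTPase reacted with 1 μM dUTP stock containing [5-3H]dUTP in Tris pH 7.4, MgCl2, 2-mercaptoethanol and albumin, 15 min at 37° C; stopped by 1 min at 100° C. [5-3H]dUMP formed was separated by reversed-phase ion-pair HPLC and quantified by flow scintillation versus water control.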

Molecules are shown by their SMILES.

What is called IC50 is the concentration that inhibits the measured activity by half.

Chain of human dUTPase (P33316 94-252): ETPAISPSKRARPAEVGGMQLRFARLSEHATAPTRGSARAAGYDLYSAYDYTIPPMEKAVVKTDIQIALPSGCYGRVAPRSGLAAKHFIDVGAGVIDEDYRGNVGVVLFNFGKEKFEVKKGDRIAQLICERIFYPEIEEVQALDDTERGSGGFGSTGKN

`C[C@@H](NS(=O)(=O)CCCOCn1ccc(=O)[nH]c1=O)c1cccc(OCC2(C)CC2)c1` [Example 60, (R)-3-((2,4-dioxo-3,4-dihydropyrimidin-1(2H)-yl)methoxy)-N-(1-(3-((1-methylcyclopropyl)methoxy)phenyl)ethyl)propane-1-sulfonamide] yielded an IC50 of 0.49 µM.

Consider `C[C@@H](NS(=O)(=O)CCCOCn1ccc(=O)[nH]c1=O)c1cccc(OCC(F)F)c1` [Example 61, (R)—N-(1-(3-(2,2-difluoroethoxy)phenyl)ethyl)-3-((2,4-dioxo-3,4-dihydropyrimidin-1(2H)-yl)methoxy)propane-1-sulfonamide], for which it took 0.14 µM to reach half-maximal inhibition (IC50).

`C#C[C@H](C)Oc1cccc([C@@H](C)NS(=O)(=O)CCCOCn2ccc(=O)[nH]c2=O)c1` [Example 62, N—((R)-1-(3-((S)-but-3-yn-2-yloxy)phenyl)ethyl)-3-((2,4-dioxo-3,4-dihydropyrimidin-1(2H)-yl)methoxy)propane-1-sulfonamide] yielded an IC50 of 0.37 µM.

For `C#C[C@@H](C)Oc1cccc([C@@H](C)NS(=O)(=O)CCCOCn2ccc(=O)[nH]c2=O)c1` [Example 63, N—((R)-1-(3-((R)-but-3-yn-2-yloxy)phenyl)ethyl)-3-((2,4-dioxo-3,4-dihydropyrimidin-1(2H)-yl)methoxy)propane-1-sulfonamide], the IC50 is 0.47 µM.

`C[C@@H](NS(=O)(=O)CCCOCn1ccc(=O)[nH]c1=O)c1cccc(OCC2CCCC2)c1` [Example 65, (R)—N-(1-(3-(cyclopentylmethoxy)phenyl)ethyl)-3-((2,4-dioxo-3,4-dihydropyrimidin-1(2H)-yl)methoxy)propane-1-sulfonamide] showed an IC50 of 1 µM.

Compound `CC[C@@H](C)Oc1cccc([C@@H](C)NS(=O)(=O)CCCOCn2ccc(=O)[nH]c2=O)c1` [Example 66, N—((R)-1-(3-((R)-1-methylpropoxy)phenyl)ethyl)-3-((2,4-dioxo-3,4-dihydropyrimidin-1(2H)-yl)methoxy)propane-1-sulfonamide] yielded an IC50 of 0.46 µM.

The compound `CC[C@H](C)Oc1cccc([C@@H](C)NS(=O)(=O)CCCOCn2ccc(=O)[nH]c2=O)c1` [Example 67, N—((R)-1-(3-((s)-1-methylpropoxy)phenyl)ethyl)-3-((2,4-dioxo-3,4-dihydropyrimidin-1(2H)-yl)methoxy)propane-1-sulfonamide] gave an IC50 of 0.43 µM.

For the compound `C[C@@H](NS(=O)(=O)CCCOCn1ccc(=O)[nH]c1=O)c1ccc(F)c(OCC(F)F)c1` [Example 68, (R)—N-(1-(3-(2,2-difluoroethoxy)-4-fluorophenyl)ethyl)-3-((2,4-dioxo-3,4-dihydropyrimidin-1(2H)-yl)methoxy)propane-1-sulfonamide], inhibition was half-maximal at 0.11 µM (IC50).

`C=CCOc1cccc([C@@H](C)NS(=O)(=O)CCCOCn2ccc(=O)[nH]c2=O)c1` [Example 69, (R)—N-(1-(3-(allyloxy)phenyl)ethyl)-3-((2,4-dioxo-3,4-dihydropyrimidin-1(2H)-yl)methoxy)propane-1-sulfonamide] registered an IC50 of 0.74 µM.

In turn, `CCC[C@H](C)Oc1cccc([C@@H](C)NS(=O)(=O)CCCOCn2ccc(=O)[nH]c2=O)c1` [Example 70, 3-((2,4-dioxo-3,4-dihydropyrimidin-1(2H)-yl)methoxy)-N—((R)-1-(3-((S)-pentan-2-yloxy)phenyl)ethyl)propane-1-sulfonamide] showed an IC50 of 0.76 µM.

`CCC[C@@H](C)Oc1cccc([C@@H](C)NS(=O)(=O)CCCOCn2ccc(=O)[nH]c2=O)c1` [Example 71, 3-((2,4-dioxo-3,4-dihydropyrimidin-1(2H)-yl)methoxy)-N—((R)-1-(3-((R)-pentan-2-yloxy)phenyl)ethyl)propane-1-sulfonamide] showed an IC50 of 0.93 µM.

Compound `C[C@@H](NS(=O)(=O)CCCOCn1ccc(=O)[nH]c1=O)c1cccc(OCC(F)(F)C(F)(F)F)c1` [Example 72, (R)-3-((2,4-dioxo-3,4-dihydropyrimidin-1(2H)-yl)methoxy)-N-(1-(3-(2,2,3,3,3-pentafluoropropoxy)phenyl)ethyl)propane-1-sulfonamide] displayed an IC50 of 0.66 µM.

Compound `C[C@@H](NS(=O)(=O)CCCOCn1ccc(=O)[nH]c1=O)c1cccc(OCCC2CC2)c1` [Example 73, (R)—N-(1-(3-(2-cyclopropylethoxy)phenyl)ethyl)-3-((2,4-dioxo-3,4-dihydropyrimidin-1(2H)-yl)methoxy)propane-1-sulfonamide] gave an IC50 of 0.51 µM.

As to `O=c1ccn(COCCCS(=O)(=O)NC(c2ccccc2)c2ccccc2)c(=O)[nH]1` [Example 76, N-benzhydryl-3-((2,4-dioxo-3,4-dihydropyrimidin-1(2H)-yl)methoxy)propane-1-sulfonamide], the midpoint of inhibition, the IC50, lay at 2.1 µM.

As to `Cc1ccccc1C(NS(=O)(=O)CCCOCn1ccc(=O)[nH]c1=O)c1ccccc1` (stereo not shown) [Example 77, 3-((2,4-dioxo-3,4-dihydropyrimidin-1(2H)-yl)methoxy)-N-(phenyl(o-tolyl)methyl)propane-1-sulfonamide], the IC50 was 5.69 µM.

Turning to `O=c1ccn(COCCCS(=O)(=O)NC(c2ccc(F)cc2)c2ccc(F)cc2)c(=O)[nH]1` [Example 78, N-(bis(4-fluorophenyl)methyl)-3-((2,4-dioxo-3,4-dihydropyrimidin-1(2H)-yl)methoxy)propane-1-sulfonamide], the IC50 was 2.58 µM.

Consider `O=c1ccn(COCCCS(=O)(=O)N2CCC[C@@H]2C(c2ccccc2)c2ccccc2)c(=O)[nH]1` [Example 79, (R)-1-((3-(2-benzhydrylpyrrolidin-1-ylsulfonyl)propoxy)methyl)pyrimidine-2,4(1H, 3H)-dione], for which the IC50 is 1.65 µM.

On to `CC(C)C[C@@H](NS(=O)(=O)CCCOCn1ccc(=O)[nH]c1=O)C(O)(c1ccccc1)c1ccccc1` [Example 80, (R)-3-((2,4-dioxo-3,4-dihydropyrimidin-1(2H)-yl)methoxy)-N-(1-hydroxy-4-methyl-1,1-diphenylpentan-2-yl)propane-1-sulfonamide], for which the IC50 was 1.3 µM.

As to `O=c1ccn(COCCCS(=O)(=O)NC2(c3ccccc3)CCCC2)c(=O)[nH]1` [Example 81, 3-((2,4-dioxo-3,4-dihydropyrimidin-1(2H)-yl)methoxy)-N-(1-phenylcyclopentyl)propane-1-sulfonamide], the IC50 worked out at 9.44 µM.

`CC[C@@H](NS(=O)(=O)CCCOCn1ccc(=O)[nH]c1=O)c1ccccc1` [Example 83, (R)-3-((2,4-dioxo-3,4-dihydropyrimidin-1(2H)-yl)methoxy)-N-(1-phenylpropyl)propane-1-sulfonamide] showed an IC50 of 4.78 µM.

The compound `C[C@@H](NS(=O)(=O)CCCOCn1ccc(=O)[nH]c1=O)c1cccc(F)c1` [Example 87, (R)-3-((2,4-dioxo-3,4-dihydropyrimidin-1(2H)-yl)methoxy)-N-(1-(3-fluorophenyl)ethyl)propane-1-sulfonamide] displayed an IC50 of 7.13 µM.

Regarding `O=c1ccn(COCCCS(=O)(=O)NC(c2ccccc2)c2cccc(F)c2)c(=O)[nH]1` (stereo not shown) [Example 93, 3-((2,4-dioxo-3,4-dihydropyrimidin-1(2H)-yl)methoxy)-N-((3-fluorophenyl)(phenyl)methyl)propane-1-sulfonamide], half-maximal inhibition (IC50) required 4.63 µM.

`O=c1ccn(Cc2ccc(S(=O)(=O)NC(c3ccccc3)c3ccccc3)cc2)c(=O)[nH]1` [Example 96, N-benzhydryl-4-((2,4-dioxo-3,4-dihydropyrimidin-1(2H)-yl)methyl)benzenesulfonamide] came in with an IC50 of 4.62 µM.

The compound `CC[C@@H](NS(=O)(=O)c1ccc(Cn2ccc(=O)[nH]c2=O)cc1)c1ccc(F)c(OCC2CC2)c1` [Example 97, (R)—N-(1-(3-(cyclopropylmethoxy)-4-fluorophenyl)propyl)-4-((2,4-dioxo-3,4-dihydropyrimidin-1(2H)-yl)methyl)benzenesulfonamide] had an IC50 of 0.58 µM.

Turning to `C[C@@H](NS(=O)(=O)CCCn1ccc(=O)[nH]c1=O)c1ccc(F)c(OCC2CC2)c1` [Example 98, (R)—N-(1-(3-(cyclopropylmethoxy)-4-fluorophenyl)ethyl)-3-(2,4-dioxo-3,4-dihydropyrimidin-1(2H)-yl)propane-1-sulfonamide], the IC50 is 0.66 µM.

As for `CC[C@@](O)(CNS(=O)(=O)CCCn1ccc(=O)[nH]c1=O)c1ccc(F)c(OC2CCCC2)c1` [Example 99, (S)—N-(2-(3-(cyclopentyloxy)-4-fluorophenyl)-2-hydroxybutyl)-3-(2,4-dioxo-3,4-dihydroxypyrimidin-1(2H)-yl)propane-1-sulfonamide], the IC50 amounted to 1.81 µM.

Compound `C[C@@H](NS(=O)(=O)CC/C=C/Cn1ccc(=O)[nH]c1=O)c1ccc(F)c(OCC2CC2)c1` [Example 100, (R,E)-N-(1-(3-(cyclopropylmethoxy)-4-fluorophenyl)ethyl)-5-(2,4-dioxo-3,4-dihydropyrimidin-1(2H)-yl)pent-3-ene-1-sulfonamide] showed an IC50 of 0.04 µM.

As to `C[C@@H](NS(=O)(=O)CCCCCn1ccc(=O)[nH]c1=O)c1ccc(F)c(OCC2CC2)c1` [Example 101, (R)—N-(1-(3-(cyclopropylmethoxy)-4-fluorophenyl)ethyl)-5-(2,4-dioxo-3,4-dihydropyrimidin-1(2H)-yl)pentane-1-sulfonamide], half-maximal inhibition (IC50) was put at 0.07 µM.

In the case of `O=c1ccn(CCCCCS(=O)(=O)NCc2cccc(OCC3CC3)c2)c(=O)[nH]1` [Example 103, N-(3-(cyclopropylmethoxy)benzyl)-5-(2,4-dioxo-3,4-dihydropyrimidin-1(2H)-yl)pentane-1-sulfonamide], half-maximal inhibition (IC50) was put at 0.52 µM.

For `C[C@@H](NS(=O)(=O)CCCn1ccc(=O)[nH]c1=O)c1cccc(OC2CCCC2)c1` [Example 104, (R)—N-(1-(3-(cyclopentyloxy)phenyl)ethyl)-3-(2,4-dioxo-3,4-dihydropyrimidin-1(2H)-yl)propane-1-sulfonamide], the IC50 was determined as 1.46 µM.

`C[C@@H](NS(=O)(=O)CC/C=C/Cn1ccc(=O)[nH]c1=O)c1cccc(OC2CCCC2)c1` [Example 105, (R,E)-N-(1-(3-(cyclopentyloxy)phenyl)ethyl)-5-(2,4-dioxo-3,4-dihydropyrimidin-1(2H)-yl)pent-3-ene-1-sulfonamide] came in with an IC50 of 0.17 µM.
